Data taken from US20040266623A1, “SYNERGISTIC QUINCLORAC HERBICIDAL COMPOSITIONS” (priority 2003, published 2004).

Columns and labels:
Test in all cases: Greenhouse pot test, postemergent spray, visual control rating converted to percent control
Format in all cases: in vivo
[1] = system: crabgrass
Procedure: (§1) Pots of crabgrass, dandelion, white clover, and plantain grown in greenhouse soiless growth media were sprayed with a greenhouse pot sprayer at 43.46 gallons of spray solution/acre and allowed to stand in the greenhouse. Visual observation of the effects made by the herbicidal compositions on the plants in the test pots was recorded for control of crabgrass, dandelion, clover and plantain at 24 hours after treatment (HAT), 48 hours after treatment (HAT), 72 hours after treatment (HAT), 7 days after treatment (DAT), 14 days after treatment (DAT) and 21 days after treatment (DAT). A control rating scale of 1 to 9 was used to record the visual observation of the effect of the herbicidal composition on the plants over the time period of the tests. 1=no control, and 9=death of plant, with intervening numbers representing successive degrees of observed effectiveness of the herbicidal composition over time. The 1-9 control rating scale was converted to percent control in the test data charts that follow.
(§2) The test protocol of S. R. Colby as set out in his article entitled “Calculating Synergistic and Antagonistic Responses of Herbicide Compositions,” received for publication Apr. 11, 1966, Contribution No. 3796 and Scientific Article No. 1271 of the Maryland Agricultural Experiment Station, Department pf Agronomy, University of Maryland was followed to evaluate the synergistic properties of the combination of quinclorac plus a herbicidal protox inhibitor, and a combination of quinclorac, plus a herbicidal protox inhibitor plus a herbicidal auxinic agent as compared with the individual herbicides, using Colby's formulas E=X+Y−XY/100 for a two herbicide combination, where E=the expected percent of inhibition of growth by herbicides, X=the percent inhibition of growth by herbicide A at p lb/A, and Y=the percent inhibition of growth by herbicide B at q lb/A, for a given combination of two herbicides. Colby's formula E=X+Y+Z−(XY+XZ+YZ)/100+XYZ/10,000, was used for the three-way herbicide combination evaluation, where E, X and Y are the same as in the two herbicide formula and Z=the percent inhibition of growth by the third herbicide.

[2] = system: plantain
Procedure: as §1, §2

[3] = system: white clover
Procedure: as §1, §2

[4] = system: dandelion
Procedure: as §1, §2

[5] = Test 3, 7 DAT, scale 1=no control, 9=death of plant
[6] = Test 3, 14 DAT, scale 1=no control, 9=death of plant
[7] = Test 3, 21 DAT, scale 1=no control, 9=death of plant
[8] = Test 3, 24 HAT, scale 1=no control, 9=death of plant
[9] = Test 3, 72 HAT, scale 1=no control, 9=death of plant

For `Cc1nn(-c2cc(NS(C)(=O)=O)c(Cl)cc2Cl)c(=O)n1C(F)F` [Sulfentrazone @ 0.02 lbs/A], the “% Control Crabgrass” value ([1]; Test 3, 7 DAT) was 44.4%, the “Control (1-9) Crabgrass” value [1, 5] was 4 and the “% Control Crabgrass” value ([1]; Test 3, 14 DAT) was 44.4%. The “Control (1-9) Crabgrass” value [1, 6] was 4, the “% Control Crabgrass” value ([1]; Test 3, 21 DAT) was 33.3% and the “Control (1-9) Crabgrass” value [1, 7] was 3. For the same compound, the “% Control Crabgrass” value ([1]; Test 3, 24 HAT) was 11.1%, the “Control (1-9) Crabgrass” value [1, 8] was 1 and the “% Control Crabgrass” value ([1]; Test 3, 72 HAT) was 22.2%. The “Control (1-9) Crabgrass” value [1, 9] was 2, the “% Control Plantain” value ([2]; Test 3, 7 DAT) was 100.0% and the “Control (1-9) Plantain” value [2, 5] was 9. For the same compound, the “% Control Plantain” value ([2]; Test 3, 14 DAT) was 100.0%, the “Control (1-9) Plantain” value [2, 6] was 9 and the “% Control Plantain” value ([2]; Test 3, 21 DAT) was 100.0%. For the same compound, the “Control (1-9) Plantain” value [2, 7] was 9, the “% Control Plantain” value ([2]; Test 3, 24 HAT) was 44.4% and the “Control (1-9) Plantain” value [2, 8] was 4. For the same compound, the “% Control Plantain” value ([2]; Test 3, 72 HAT) was 88.9%, the “Control (1-9) Plantain” value [2, 9] was 8 and the “% Control Clover” value ([3]; Test 3, 7 DAT) was 33.3%. For the same compound, the “Control (1-9) Clover” value [3, 5] was 3, the “% Control Clover” value ([3]; Test 3, 14 DAT) was 44.4% and the “Control (1-9) Clover” value [3, 6] was 4. The “% Control Clover” value ([3]; Test 3, 21 DAT) was 44.4%, the “Control (1-9) Clover” value [3, 7] was 4 and the “% Control Clover” value ([3]; Test 3, 24 HAT) was 33.3%. The “Control (1-9) Clover” value [3, 8] was 3, the “% Control Clover” value ([3]; Test 3, 72 HAT) was 22.2% and the “Control (1-9) Clover” value [3, 9] was 2. The “% Control Dandelion” value ([4]; Test 3, 7 DAT) was 44.4%, the “Control (1-9) Dandelion” value [4, 5] was 4 and the “% Control Dandelion” value ([4]; Test 3, 14 DAT) was 77.8%. The “Control (1-9) Dandelion” value [4, 6] was 7, the “% Control Dandelion” value ([4]; Test 3, 21 DAT) was 66.7% and the “Control (1-9) Dandelion” value [4, 7] was 6. For the same compound, the “% Control Dandelion” value ([4]; Test 3, 24 HAT) was 33.3%, the “Control (1-9) Dandelion” value [4, 8] was 3 and the “% Control Dandelion” value ([4]; Test 3, 72 HAT) was 33.3%. The “Control (1-9) Dandelion” value [4, 9] was 3.
With `Cc1nn(-c2cc(CC(Cl)C(=O)O)c(Cl)cc2F)c(=O)n1C(F)F` (stereo not drawn) [Carfentrazone] the “% Control Crabgrass” value ([1]; Test 1, 7 DAT, 0.01 lbs/A) was 77.8%, the “Control (1-9) Crabgrass” value ([1]; Test 1, 7 DAT, 0.01 lbs/A) was 7 and the “% Control Crabgrass” value ([1]; Test 1, 7 DAT, 0.02 lbs/A) was 77.8%. For the same compound, the “Control (1-9) Crabgrass” value ([1]; Test 1, 7 DAT, 0.02 lbs/A) was 7, the “% Control Crabgrass” value ([1]; Test 1, 14 DAT, 0.01 lbs/A) was 33.3% and the “Control (1-9) Crabgrass” value ([1]; Test 1, 14 DAT, 0.01 lbs/A) was 3. For the same compound, the “% Control Crabgrass” value ([1]; Test 1, 14 DAT, 0.02 lbs/A) was 33.3%, the “Control (1-9) Crabgrass” value ([1]; Test 1, 14 DAT, 0.02 lbs/A) was 3 and the “% Control Crabgrass” value ([1]; Test 1, 24 HAT, 0.01 lbs/A) was 22.2%. For the same compound, the “Control (1-9) Crabgrass” value ([1]; Test 1, 24 HAT, 0.01 lbs/A) was 2, the “% Control Crabgrass” value ([1]; Test 1, 24 HAT, 0.02 lbs/A) was 33.3% and the “Control (1-9) Crabgrass” value ([1]; Test 1, 24 HAT, 0.02 lbs/A) was 3. For the same compound, the “% Control Crabgrass” value ([1]; Test 1, 48 HAT, 0.01 lbs/A) was 33.3%, the “Control (1-9) Crabgrass” value ([1]; Test 1, 48 HAT, 0.01 lbs/A) was 3 and the “% Control Crabgrass” value ([1]; Test 1, 48 HAT, 0.02 lbs/A) was 55.6%. For the same compound, the “Control (1-9) Crabgrass” value ([1]; Test 1, 48 HAT, 0.02 lbs/A) was 5, the “% Control Crabgrass” value ([1]; Test 4, 7 DAT, 0.01 lbs/A) was 55.6% and the “Control (1-9) Crabgrass” value ([1]; Test 4, 7 DAT, 0.01 lbs/A) was 5. For the same compound, the “% Control Crabgrass” value ([1]; Test 4, 7 DAT, 0.02 lbs/A) was 55.6%, the “Control (1-9) Crabgrass” value ([1]; Test 4, 7 DAT, 0.02 lbs/A) was 5 and the “% Control Crabgrass” value ([1]; Test 4, 14 DAT, 0.01 lbs/A) was 55.6%. For the same compound, the “Control (1-9) Crabgrass” value ([1]; Test 4, 14 DAT, 0.01 lbs/A) was 5, the “% Control Crabgrass” value ([1]; Test 4, 14 DAT, 0.02 lbs/A) was 55.6% and the “Control (1-9) Crabgrass” value ([1]; Test 4, 14 DAT, 0.02 lbs/A) was 5. The “% Control Plantain” value ([2]; Test 4, 7 DAT, 0.01 lbs/A) was 100.0%, the “Control (1-9) Plantain” value ([2]; Test 4, 7 DAT, 0.01 lbs/A) was 9 and the “% Control Plantain” value ([2]; Test 4, 7 DAT, 0.02 lbs/A) was 88.9%. The “Control (1-9) Plantain” value ([2]; Test 4, 7 DAT, 0.02 lbs/A) was 8, the “% Control Plantain” value ([2]; Test 4, 14 DAT, 0.01 lbs/A) was 100.0% and the “Control (1-9) Plantain” value ([2]; Test 4, 14 DAT, 0.01 lbs/A) was 9. For the same compound, the “% Control Plantain” value ([2]; Test 4, 14 DAT, 0.02 lbs/A) was 88.9%, the “Control (1-9) Plantain” value ([2]; Test 4, 14 DAT, 0.02 lbs/A) was 8 and the “% Control Clover” value ([3]; Test 1, 7 DAT, 0.01 lbs/A) was 66.7%. The “Control (1-9) Clover” value ([3]; Test 1, 7 DAT, 0.01 lbs/A) was 6, the “% Control Clover” value ([3]; Test 1, 7 DAT, 0.02 lbs/A) was 66.7% and the “Control (1-9) Clover” value ([3]; Test 1, 7 DAT, 0.02 lbs/A) was 6. The “% Control Clover” value ([3]; Test 1, 14 DAT, 0.01 lbs/A) was 77.8%, the “Control (1-9) Clover” value ([3]; Test 1, 14 DAT, 0.01 lbs/A) was 7 and the “% Control Clover” value ([3]; Test 1, 14 DAT, 0.02 lbs/A) was 100.0%. For the same compound, the “Control (1-9) Clover” value ([3]; Test 1, 14 DAT, 0.02 lbs/A) was 9, the “% Control Clover” value ([3]; Test 1, 24 HAT, 0.01 lbs/A) was 33.3% and the “Control (1-9) Clover” value ([3]; Test 1, 24 HAT, 0.01 lbs/A) was 3. The “% Control Clover” value ([3]; Test 1, 24 HAT, 0.02 lbs/A) was 33.3%, the “Control (1-9) Clover” value ([3]; Test 1, 24 HAT, 0.02 lbs/A) was 3 and the “% Control Clover” value ([3]; Test 1, 48 HAT, 0.01 lbs/A) was 55.6%. The “Control (1-9) Clover” value ([3]; Test 1, 48 HAT, 0.01 lbs/A) was 5, the “% Control Clover” value ([3]; Test 1, 48 HAT, 0.02 lbs/A) was 55.6% and the “Control (1-9) Clover” value ([3]; Test 1, 48 HAT, 0.02 lbs/A) was 5. For the same compound, the “% Control Clover” value ([3]; Test 4, 7 DAT, 0.01 lbs/A) was 66.7%, the “Control (1-9) Clover” value ([3]; Test 4, 7 DAT, 0.01 lbs/A) was 6 and the “% Control Clover” value ([3]; Test 4, 7 DAT, 0.02 lbs/A) was 77.8%. For the same compound, the “Control (1-9) Clover” value ([3]; Test 4, 7 DAT, 0.02 lbs/A) was 7, the “% Control Clover” value ([3]; Test 4, 14 DAT, 0.01 lbs/A) was 66.7% and the “Control (1-9) Clover” value ([3]; Test 4, 14 DAT, 0.01 lbs/A) was 6. For the same compound, the “% Control Clover” value ([3]; Test 4, 14 DAT, 0.02 lbs/A) was 88.9%, the “Control (1-9) Clover” value ([3]; Test 4, 14 DAT, 0.02 lbs/A) was 8 and the “% Control Dandelion” value ([4]; Test 1, 7 DAT, 0.01 lbs/A) was 88.9%. For the same compound, the “Control (1-9) Dandelion” value ([4]; Test 1, 7 DAT, 0.01 lbs/A) was 8, the “% Control Dandelion” value ([4]; Test 1, 7 DAT, 0.02 lbs/A) was 88.9% and the “Control (1-9) Dandelion” value ([4]; Test 1, 7 DAT, 0.02 lbs/A) was 8. The “% Control Dandelion” value ([4]; Test 1, 14 DAT, 0.01 lbs/A) was 88.9%, the “Control (1-9) Dandelion” value ([4]; Test 1, 14 DAT, 0.01 lbs/A) was 8 and the “% Control Dandelion” value ([4]; Test 1, 14 DAT, 0.02 lbs/A) was 100.0%. The “Control (1-9) Dandelion” value ([4]; Test 1, 14 DAT, 0.02 lbs/A) was 9, the “% Control Dandelion” value ([4]; Test 1, 24 HAT, 0.01 lbs/A) was 44.4% and the “Control (1-9) Dandelion” value ([4]; Test 1, 24 HAT, 0.01 lbs/A) was 4. The “% Control Dandelion” value ([4]; Test 1, 24 HAT, 0.02 lbs/A) was 33.3%, the “Control (1-9) Dandelion” value ([4]; Test 1, 24 HAT, 0.02 lbs/A) was 3 and the “% Control Dandelion” value ([4]; Test 1, 48 HAT, 0.01 lbs/A) was 55.6%. The “Control (1-9) Dandelion” value ([4]; Test 1, 48 HAT, 0.01 lbs/A) was 5, the “% Control Dandelion” value ([4]; Test 1, 48 HAT, 0.02 lbs/A) was 55.6% and the “Control (1-9) Dandelion” value ([4]; Test 1, 48 HAT, 0.02 lbs/A) was 5. For the same compound, the “% Control Dandelion” value ([4]; Test 4, 7 DAT, 0.01 lbs/A) was 55.6%, the “Control (1-9) Dandelion” value ([4]; Test 4, 7 DAT, 0.01 lbs/A) was 5 and the “% Control Dandelion” value ([4]; Test 4, 7 DAT, 0.02 lbs/A) was 88.9%. The “Control (1-9) Dandelion” value ([4]; Test 4, 7 DAT, 0.02 lbs/A) was 8, the “% Control Dandelion” value ([4]; Test 4, 14 DAT, 0.01 lbs/A) was 55.6% and the “Control (1-9) Dandelion” value ([4]; Test 4, 14 DAT, 0.01 lbs/A) was 5. For the same compound, the “% Control Dandelion” value ([4]; Test 4, 14 DAT, 0.02 lbs/A) was 88.9% and the “Control (1-9) Dandelion” value ([4]; Test 4, 14 DAT, 0.02 lbs/A) was 8.
